# Experiment: Quantification of garlic-derived metabolites in human urine after ingestion of 3 g raw garlic (SIDA, SAFE, HRGC-MS / HRGC-GC-MS)
# Assay type: in vivo
# Conditions: 3 g raw garlic
# Excerpt: Human urine samples were obtained from 18 volunteers (age 22–38 years, mean 27 years; 11 females, 7 males); thereby, one volunteer conducted the whole experimental series twice. At the time of examination, volunteers reported no known illness that might have potentially influenced the metabolism or the excretion of urine. The test persons were instructed to avoid foods that were rich in sulfur-containing substances at the testing day as well as 2 days preceding the testing day, namely garlic, onion, wild garlic, chives, cabbage, and leek, and were only allowed to consume the garlic sample provided in the course of the experiments. Additionally, subjects were asked to keep records of the food (including food supplements) and beverages they consumed during these 3 testing days. Generally, the overall panelists' requirements were in accordance with our previous studies ([5], [16]).
# On the sampling day, the outer garlic cloves of a whole garlic bulb were peeled and cut into ~3 mm cubes by using a garlic cutter (Genius GmbH, Limburg/Lahn, Germany). Subsequently these cubes were thoroughly mixed and aliquoted into 3 g portions. Three to four test persons conducted the experiment at the same day. Each test person was asked to ingest a garlic portion of 3 g. In total, eight consecutive urine samples were provided by each test person, comprising one whole urine set. The samples were collected in sterile brown glass bottles, with sampling times as follows: one sample was provided directly prior to garlic consumption. The series of the second to eighth sample was then obtained at about 0.5, 1, 2, 4, 6, 8, and 24 h after garlic consumption, respectively. Between the first urine sample (prior to garlic consumption) and the seventh urine sample (8 h after garlic consumption) test persons only spent urine at the specific time points mentioned before. Another sample was provided at the next morning (24 h after garlic consumption). Between the samples provided 8 and 24 h after garlic consumption no urine was collected. All samples were immediately placed into a −80°C freezer and were kept frozen until further analysis.
# The samples of each set were termed according to their sampling time. The following list provides the time intervals that are related to the respective sample name: • - pre: before garlic consumption • - 0.5 h post: 0.4–0.8 h after garlic consumption • - 1 h post: 0.9–1.3 h after garlic consumption • - 2 h post: 1.8 h−2.2 h after garlic consumption • - 4 h post: 3.8–4.4 h after garlic consumption • - 6 h post: 5.8–6.4 h after garlic consumption • - 8 h post: 7.8–8.4 h after garlic consumption • - 24 h post: 23.8–25.6 h after garlic consumption
# A creatinine kit (Labor+Technik Eberhard Lehmann GmbH, Berlin, Germany) was used to determine the creatinine content in each urine sample. The determination principle of this kit is based on the reaction of creatinine with picric acid under basic conditions (Jaffé reaction). The formed complex was detected photometrically at a wavelength of 492 nm.
# For quantification purposes, the deuterated standards ^2H3-AMS, ^2H3-AMSO, and ^2H3-AMSO2 were added to the sample and stirred for 10 min. Subsequently, DCM was added in a ratio of 1:2 (DCM/human urine; v/v) and this solution was stirred for further 30 min at room temperature. To isolate the volatile fraction from the urine samples we then applied SAFE-distillation ([17]), thereby distilling the respective samples at 50°C. After completion of the distillation process, 10 mL of DCM were applied in each case to rinse the SAFE apparatus and to ensure complete transition of the volatile compounds. This process was repeated with another 10 mL of DCM. After thawing, the obtained aqueous distillate phase was extracted three times with 25 mL DCM. The organic phases were combined, dried over anhydrous Na2SO4 and concentrated to a total volume of 100 μL by means of Vigreux distillation and subsequent micro-distillation at 50°C. […]
smiles,measurement,setting,value
"C=CC[S+](C)[O-] (stereo not drawn) [AMSO, allyl methyl sulfoxide]",metabolite concentration in urine,"U VII, 1 h post (1.08 h)",239.4 µg/kg
same,"metabolite concentration in urine, creatinine-normalized","U VII, 1 h post (1.08 h)",148.3 µg/mmol creatinine
same,metabolite concentration in urine,"U VII, 2 h post (2.00 h)",158.6 µg/kg
same,"metabolite concentration in urine, creatinine-normalized","U VII, 2 h post (2.00 h)",162.5 µg/mmol creatinine
same,metabolite concentration in urine,"U VII, 4 h post (4.00 h)",145.1 µg/kg
same,"metabolite concentration in urine, creatinine-normalized","U VII, 4 h post (4.00 h)",90.0 µg/mmol creatinine
same,metabolite concentration in urine,"U VII, 6 h post (6.00 h)",123.7 µg/kg
same,"metabolite concentration in urine, creatinine-normalized","U VII, 6 h post (6.00 h)",40.0 µg/mmol creatinine
same,metabolite concentration in urine,"U VII, 8 h post (8.00 h)",58.6 µg/kg
same,"metabolite concentration in urine, creatinine-normalized","U VII, 8 h post (8.00 h)",30.1 µg/mmol creatinine
same,metabolite concentration in urine,"U VII, 24 h post (24.00 h)",5.9 µg/kg
same,"metabolite concentration in urine, creatinine-normalized","U VII, 24 h post (24.00 h)",1.6 µg/mmol creatinine
same,metabolite concentration in urine,"U VII, pre (-0.25 h)",3.4 µg/kg
same,"metabolite concentration in urine, creatinine-normalized","U VII, pre (-0.25 h)",1.0 µg/mmol creatinine
same,metabolite concentration in urine,"U VIII, 0.5 h post (0.52 h)",184.6 µg/kg
same,"metabolite concentration in urine, creatinine-normalized","U VIII, 0.5 h post (0.52 h)",234.8 µg/mmol creatinine
same,metabolite concentration in urine,"U VIII, 1 h post (1.08 h)",423.9 µg/kg
same,"metabolite concentration in urine, creatinine-normalized","U VIII, 1 h post (1.08 h)",255.5 µg/mmol creatinine
same,metabolite concentration in urine,"U VIII, 2 h post (2.08 h)",293.8 µg/kg
same,"metabolite concentration in urine, creatinine-normalized","U VIII, 2 h post (2.08 h)",277.9 µg/mmol creatinine
same,metabolite concentration in urine,"U VIII, 4 h post (4.07 h)",239.2 µg/kg
same,"metabolite concentration in urine, creatinine-normalized","U VIII, 4 h post (4.07 h)",113.3 µg/mmol creatinine
same,metabolite concentration in urine,"U VIII, 6 h post (6.08 h)",197.8 µg/kg
same,"metabolite concentration in urine, creatinine-normalized","U VIII, 6 h post (6.08 h)",52.6 µg/mmol creatinine
same,metabolite concentration in urine,"U VIII, 8 h post (7.90 h)",109.7 µg/kg
same,"metabolite concentration in urine, creatinine-normalized","U VIII, 8 h post (7.90 h)",40.0 µg/mmol creatinine
same,metabolite concentration in urine,"U VIII, 24 h post (23.83 h)",26.2 µg/kg
same,"metabolite concentration in urine, creatinine-normalized","U VIII, 24 h post (23.83 h)",9.9 µg/mmol creatinine
same,metabolite concentration in urine,"U VIII, pre (-0.33 h)",61.4 µg/kg
same,"metabolite concentration in urine, creatinine-normalized","U VIII, pre (-0.33 h)",13.8 µg/mmol creatinine
same,metabolite concentration in urine,"U X, 0.5 h post (0.53 h)",73.7 µg/kg
same,"metabolite concentration in urine, creatinine-normalized","U X, 0.5 h post (0.53 h)",38.2 µg/mmol creatinine
same,metabolite concentration in urine,"U X, 1 h post (1.03 h)",77.0 µg/kg
same,"metabolite concentration in urine, creatinine-normalized","U X, 1 h post (1.03 h)",97.5 µg/mmol creatinine
same,metabolite concentration in urine,"U X, 2 h post (2.03 h)",68.8 µg/kg
same,"metabolite concentration in urine, creatinine-normalized","U X, 2 h post (2.03 h)",102.4 µg/mmol creatinine
same,metabolite concentration in urine,"U X, 4 h post (3.85 h)",68.2 µg/kg
same,"metabolite concentration in urine, creatinine-normalized","U X, 4 h post (3.85 h)",51.9 µg/mmol creatinine
same,metabolite concentration in urine,"U X, 6 h post (5.80 h)",68.6 µg/kg
same,"metabolite concentration in urine, creatinine-normalized","U X, 6 h post (5.80 h)",29.1 µg/mmol creatinine
same,metabolite concentration in urine,"U X, 8 h post (7.75 h)",37.9 µg/kg
same,"metabolite concentration in urine, creatinine-normalized","U X, 8 h post (7.75 h)",16.3 µg/mmol creatinine
same,metabolite concentration in urine,"U X, 24 h post (23.97 h)",23.9 µg/kg
same,"metabolite concentration in urine, creatinine-normalized","U X, 24 h post (23.97 h)",2.2 µg/mmol creatinine
same,metabolite concentration in urine,"U X, pre (-0.07 h)",< LOD^2
same,"metabolite concentration in urine, creatinine-normalized","U X, pre (-0.07 h)",< LOD^2
same,metabolite concentration in urine,"U XI, 0.5 h post (0.50 h)",64.0 µg/kg
same,"metabolite concentration in urine, creatinine-normalized","U XI, 0.5 h post (0.50 h)",77.5 µg/mmol creatinine
same,metabolite concentration in urine,"U XI, 1 h post (1.02 h)",106.2 µg/kg
same,"metabolite concentration in urine, creatinine-normalized","U XI, 1 h post (1.02 h)",133.3 µg/mmol creatinine
same,metabolite concentration in urine,"U XI, 2 h post (2.00 h)",102.2 µg/kg
same,"metabolite concentration in urine, creatinine-normalized","U XI, 2 h post (2.00 h)",133.3 µg/mmol creatinine
same,metabolite concentration in urine,"U XI, pre (-0.08 h)",3.8 µg/kg
same,"metabolite concentration in urine, creatinine-normalized","U XI, pre (-0.08 h)",1.1 µg/mmol creatinine
same,metabolite concentration in urine,"U XII, 0.5 h post (0.48 h)",83.8 µg/kg
same,"metabolite concentration in urine, creatinine-normalized","U XII, 0.5 h post (0.48 h)",11.2 µg/mmol creatinine
same,metabolite concentration in urine,"U XII, 1 h post (1.03 h)",82.1 µg/kg

# From PMC6499206, “Quantification of Volatile Metabolites Derived From Garlic (Allium sativum) in Human Urine” (Frontiers in Nutrition, 2019)
